Assay results taken from US10738028B2, “Spiro three-membered ring, spiro five-membered ring peptide deformylase inhibitor and use thereof in antibacteria and anti-tumor” (priority 2016, dated 2020).
Read-outs that look alike come from different tables or passages of the source.

How the values were obtained:
Assay type in all cases: cell-based
[1] = system: methicillin-sensitive Staphylococcus aureus (MSSA); assay: MIC, two-fold agar dilution (CLSI), clinical isolates; settings: for Anti-bacterial activity (MIC), strain MSSA 15-3: clinical isolate MSSA 15-3; for Anti-bacterial activity (MIC), strain MSSA 15-4: clinical isolate MSSA 15-4; for Anti-bacterial activity (MIC), strain MSSA 15-5: clinical isolate MSSA 15-5; for Anti-bacterial activity (MIC), strain MSSA 15-6: clinical isolate MSSA 15-6
How it was run: (§1)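 Following the American Clinical and Laboratory Standards Institute procedure, agar two-fold dilution served to determine minimum inhibitory concentrations.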

[2] = system: Escherichia coli (including ESBLs, non-ESBLs); assay: as above; settings: for Anti-bacterial activity (MIC), strain ECO+ 15-1: clinical isolate ECO+ 15-1; for Anti-bacterial activity (MIC), strain ECO+ 15-2: clinical isolate ECO+ 15-2; for Anti-bacterial activity (MIC), strain ECO+ 15-3: clinical isolate ECO+ 15-3; for Anti-bacterial activity (MIC), strain ECO+ 15-4: clinical isolate ECO+ 15-4; for Anti-bacterial activity (MIC), strain ECO− 15-1: clinical isolate ECO− 15-1; for Anti-bacterial activity (MIC), strain ECO− 15-2: clinical isolate ECO− 15-2; for Anti-bacterial activity (MIC), strain ECO− 15-3: clinical isolate ECO− 15-3; for Anti-bacterial activity (MIC), strain ECO− 15-4: clinical isolate ECO− 15-4
How it was run: as §1

[3] = system: Moraxella catarrhalis (BCA); assay: as above
How it was run: as §1

[4] = system: methicillin-resistant Staphylococcus aureus (MRSA); assay: as above; settings: for Anti-bacterial activity (MIC), strain MRSA 15-1: clinical isolate MRSA 15-1; for Anti-bacterial activity (MIC), strain MRSA 15-2: clinical isolate MRSA 15-2; for Anti-bacterial activity (MIC), strain MRSA 15-3: clinical isolate MRSA 15-3; for Anti-bacterial activity (MIC), strain MRSA 15-4: clinical isolate MRSA 15-4
How it was run: as §1

[5] = system: methicillin-sensitive Staphylococcus epidermidis (MSSE); assay: as above; settings: for Anti-bacterial activity (MIC), strain MSSE 15-3: clinical isolate MSSE 15-3; for Anti-bacterial activity (MIC), strain MSSE 15-4: clinical isolate MSSE 15-4; for Anti-bacterial activity (MIC), strain MSSE 15-5: clinical isolate MSSE 15-5; for Anti-bacterial activity (MIC), strain MSSE 15-6: clinical isolate MSSE 15-6
How it was run: as §1

[6] = system: methicillin-resistant Staphylococcus epidermidis (MRSE); assay: as above; settings: for Anti-bacterial activity (MIC), strain MRSE 15-1: clinical isolate MRSE 15-1; for Anti-bacterial activity (MIC), strain MRSE 15-2: clinical isolate MRSE 15-2; for Anti-bacterial activity (MIC), strain MRSE 15-3: clinical isolate MRSE 15-3; for Anti-bacterial activity (MIC), strain MRSE 15-7: clinical isolate MRSE 15-7
How it was run: as §1

[7] = system: Enterococcus faecalis (EFA); assay: as above
How it was run: as §1

[8] = system: Streptococcus pneoumoniae (SPN); assay: as above
How it was run: as §1

[9] = system: Enterococcus faecium (EFM); assay: as above
How it was run: as §1

[10] = system: MGC-803 gastric cancer cell line; assay: CCK-8 proliferation inhibition; settings: for inhibition at 30 µM: MGC-803, 72 h
How it was run: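 Cells seeded at 2000 cells/well, cultured overnight at 37 °C, 5% CO2, then exposed 72 h to compound dilutions in medium with 10% newborn bovine serum (1‰ DMSO control). Viability read with 1:10 diluted CCK-8 solution. Media: PC3 in F12; MGC-803 and Jurkat in 1640; MCF-7 in DMEM high glucose.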

[11] = system: A549 lung cancer cell line; assay: CCK-8 proliferation inhibition
How it was run: (§2)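 Plating at 2000 cells/well, then incubation overnight at 37° C. Next, a range of compound concentrations for 72 hours (control 1‰ DMSO). Finally, medium decanted and CCK-8 diluted 1:10 added.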

[12] = system: BEL-7402 liver cancer cell line; assay: CCK-8 proliferation inhibition; settings: for inhibition at 30 µM: Bel-7402, 72 h
How it was run: as §2

[13] = system: HCT-116 colorectal cancer cell line; assay: CCK-8 proliferation inhibition; settings: 72 hours, CCK-8; for inhibition at 30 µM: HCT-116, 72 h
How it was run: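 Cells seeded at 2000 cells/well, cultured overnight at 37 °C, 5% CO2, then exposed to compound (DMSO; control 1‰ DMSO) for 72 h in McCoy's 5A with 10% newborn bovine serum. Viability read with 1:10 diluted CCK-8.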

[14] = Homo sapiens, concentration of 30 μM
[15] = concentration of 30 μM, 72 hours, 30 µM

Cc1cc(NC(=O)[C@@H]2CC3(CC3)CN2C(=O)[C@@H](CC(=O)NO)CC2CCCC2)no1 [Example 71]
34%: inhibition at 30 µM [10, 14]
0.16 µg/mL: Anti-bacterial activity (MIC), strain MSSE 15-3 [5]
16 µg/mL: Anti-bacterial activity (MIC), strain ECO+ 15-1 [2] | Anti-bacterial activity (MIC), strain ECO+ 15-2 [2] | Anti-bacterial activity (MIC), strain ECO− 15-1 [2] | Anti-bacterial activity (MIC), strain ECO− 15-2 [2] | Anti-bacterial activity (MIC), strain ECO− 15-3 [2]
0.5 µg/mL: Anti-bacterial activity (MIC) ([3]; strain BCA 14-1) | Anti-bacterial activity (MIC) ([3]; strain BCA 14-4) | Anti-bacterial activity (MIC) ([3]; strain BCA 14-6) | Anti-bacterial activity (MIC) ([3]; strain BCA 14-7) | Anti-bacterial activity (MIC), strain MRSA 15-4 [4] | Anti-bacterial activity (MIC) ([7]; strain EFA 15-3) | Anti-bacterial activity (MIC) ([9]; strain EFM 15-1) | Anti-bacterial activity (MIC) ([9]; strain EFM 15-6)
30%: inhibition at 30 µM ([13]; Homo sapiens, concentration of 30 μM, read-out: HCT116 inhibition rate/%)
2 µg/mL: Anti-bacterial activity (MIC) ([7]; strain EFA 15-1) | Anti-bacterial activity (MIC) ([7]; strain EFA 15-2) | Anti-bacterial activity (MIC) ([7]; strain EFA 15-4) | Anti-bacterial activity (MIC) ([7]; strain EFA 15-5) | Anti-bacterial activity (MIC) ([7]; strain EFA 15-6) | Anti-bacterial activity (MIC) ([8]; strain SPN 16-2) | Anti-bacterial activity (MIC) ([9]; strain EFM 15-2) | Anti-bacterial activity (MIC) ([9]; strain EFM 15-4)
49%: inhibition at 30 µM [12, 14]
32 µg/mL: Anti-bacterial activity (MIC), strain ECO+ 15-3 [2] | Anti-bacterial activity (MIC), strain ECO+ 15-4 [2] | Anti-bacterial activity (MIC), strain ECO− 15-4 [2]
0.125 µg/mL: Anti-bacterial activity (MIC), strain MSSA 15-4 [1] | Anti-bacterial activity (MIC) ([3]; strain BCA 14-10) | Anti-bacterial activity (MIC), strain MRSA 15-1 [4] | Anti-bacterial activity (MIC), strain MRSA 15-3 [4] | Anti-bacterial activity (MIC), strain MRSE 15-2 [6] | Anti-bacterial activity (MIC), strain MRSE 15-3 [6] | Anti-bacterial activity (MIC) ([9]; strain EFM 15-5)
1 µg/mL: Anti-bacterial activity (MIC), strain MRSA 15-2 [4] | Anti-bacterial activity (MIC) ([7]; strain EFA 15-9)
0.25 µg/mL: Anti-bacterial activity (MIC), strain MSSA 15-3 [1] | Anti-bacterial activity (MIC), strain MSSA 15-6 [1] | Anti-bacterial activity (MIC) ([3]; strain BCA 14-5) | Anti-bacterial activity (MIC) ([3]; strain BCA 14-8) | Anti-bacterial activity (MIC), strain MRSE 15-7 [6] | Anti-bacterial activity (MIC) ([8]; strain SPN 16-4) | Anti-bacterial activity (MIC) ([9]; strain EFM 15-3)
5%: inhibition at 30 µM ([11]; Homo sapiens, A549, 72 h, concentration of 30 μM)
0.06 µg/mL: Anti-bacterial activity (MIC), strain MSSA 15-5 [1] | Anti-bacterial activity (MIC), strain MSSE 15-4 [5] | Anti-bacterial activity (MIC), strain MSSE 15-5 [5] | Anti-bacterial activity (MIC), strain MSSE 15-6 [5] | Anti-bacterial activity (MIC), strain MRSE 15-1 [6]
≥ 30%: inhibition at 30 µM ([13]; Homo sapiens, concentration of 30 μM, Table 5, read-out: Inhibition of proliferation, Colorectal cancer HCT116)

O=C(C[C@@H](CC1CCCC1)C(=O)N1CC2(CC2)C[C@@H]1c1nc2ccccc2[nH]1)NO [Example 76, (R)-4-((R)-6-(1H-benzimidazol-2-yl)-5-azaspiro[2.4]heptane-5-yl)-3-(cyclopentylmethyl)-N-hydroxy-4-oxobutanamide]
> 50%: inhibition at 30 µM [10, 14] | inhibition at 30 µM [12, 14]
16.6 µM: IC50 ([10]; Homo sapiens, MGC-803, 72 hours)
2 µg/mL: Anti-bacterial activity (MIC) ([3]; strain BCA 14-1)
10.8 µM: IC50 ([13]; Homo sapiens, HCT-116)
94%: Inhibition of proliferation, Lung cancer A549 [11, 15]
67%: Inhibition of proliferation, Liver cancer BEL-7402 [12, 15]
> 32 µg/mL: Anti-bacterial activity (MIC), strain MSSA 15-3 [1] | Anti-bacterial activity (MIC), strain MSSA 15-4 [1] | Anti-bacterial activity (MIC), strain MSSA 15-5 [1] | Anti-bacterial activity (MIC), strain MSSA 15-6 [1] | Anti-bacterial activity (MIC), strain ECO+ 15-1 [2] | Anti-bacterial activity (MIC), strain ECO+ 15-2 [2] | Anti-bacterial activity (MIC), strain ECO+ 15-3 [2] | Anti-bacterial activity (MIC), strain ECO+ 15-4 [2] | Anti-bacterial activity (MIC), strain ECO− 15-1 [2] | Anti-bacterial activity (MIC), strain ECO− 15-2 [2] | Anti-bacterial activity (MIC), strain ECO− 15-3 [2] | Anti-bacterial activity (MIC), strain ECO− 15-4 [2] | Anti-bacterial activity (MIC) ([3]; strain BCA 14-4) | Anti-bacterial activity (MIC) ([3]; strain BCA 14-5) | Anti-bacterial activity (MIC) ([3]; strain BCA 14-6) | Anti-bacterial activity (MIC) ([3]; strain BCA 14-7) | Anti-bacterial activity (MIC) ([3]; strain BCA 14-8) | Anti-bacterial activity (MIC) ([3]; strain BCA 14-10) | Anti-bacterial activity (MIC), strain MRSA 15-1 [4] | Anti-bacterial activity (MIC), strain MRSA 15-2 [4] | Anti-bacterial activity (MIC), strain MRSA 15-3 [4] | Anti-bacterial activity (MIC), strain MRSA 15-4 [4] | Anti-bacterial activity (MIC), strain MSSE 15-3 [5] | Anti-bacterial activity (MIC), strain MSSE 15-4 [5] | Anti-bacterial activity (MIC), strain MSSE 15-5 [5] | Anti-bacterial activity (MIC), strain MSSE 15-6 [5] | Anti-bacterial activity (MIC), strain MRSE 15-1 [6] | Anti-bacterial activity (MIC), strain MRSE 15-2 [6] | Anti-bacterial activity (MIC), strain MRSE 15-3 [6] | Anti-bacterial activity (MIC), strain MRSE 15-7 [6] | Anti-bacterial activity (MIC) ([7]; strain EFA 15-1) | Anti-bacterial activity (MIC) ([7]; strain EFA 15-2) | Anti-bacterial activity (MIC) ([7]; strain EFA 15-3) | Anti-bacterial activity (MIC) ([7]; strain EFA 15-4) | Anti-bacterial activity (MIC) ([7]; strain EFA 15-5) | Anti-bacterial activity (MIC) ([7]; strain EFA 15-6) | Anti-bacterial activity (MIC) ([7]; strain EFA 15-9) | Anti-bacterial activity (MIC) ([9]; strain EFM 15-1) | Anti-bacterial activity (MIC) ([9]; strain EFM 15-2) | Anti-bacterial activity (MIC) ([9]; strain EFM 15-3)
4 µg/mL: Anti-bacterial activity (MIC) ([8]; strain SPN 16-4)
8.58 µM: IC50 ([12]; Homo sapiens, Bel-7402, 72 hours)
9.29 µM: IC50 ([11]; Homo sapiens, A549, 72 hours)
16 µg/mL: Anti-bacterial activity (MIC) ([9]; strain EFM 15-4) | Anti-bacterial activity (MIC) ([9]; strain EFM 15-5)
32 µg/mL: Anti-bacterial activity (MIC) ([9]; strain EFM 15-6)
87%: HCT116 inhibition rate/% ([13]; concentration of 30 μM, 30 µM)
64%: Inhibition of proliferation, Gastric cancer MGC-803 [10, 15]
8 µg/mL: Anti-bacterial activity (MIC) ([8]; strain SPN 16-2)
